What all share (assay): NCI tumour cell line growth inhibition, 48 h
Experiment [1] deals with SNB-78.
Experiment [2] has as its system RXF 631.
In experiment [3] the test system is KM-20L2.
For experiment [4], the system named is DMS-114.
In experiment [5] the test system is XF498.
Experiment [6] relates to DMS-273.
For experiment [7], the system named is LXFL 529.
The subject of experiment [8] is DLD-1.
Experiment [9] concerns HOP-18.

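Cells were grown in 96-well plates and exposed to each compound for 48 hours at five concentrations; endpoints were interpolated linearly between bracketing concentrations, or set to the highest concentration if not reached. The concentration for 50% growth inhibition is given as GI50.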 Calls of active or inactive are those of the source. Rule as the data show it: active = GI50 up to about 1.1 µM and inactive = higher. Some results are limits rather than exact numbers.

19 molecules from ChEMBL document CHEMBL1201862, “PubChem BioAssay data set” (2004) can be followed below.

For the molecule `CC[C@@]1(O)C(=O)OCc2c1cc1n(c2=O)Cc2cc3c(N)cccc3nc2-1` [9-AMINOCAMPTOTHECIN], the GI50 in experiment [1] is 0.574 µM (active); in experiment [2], 0.0375 µM (active); in experiment [3], 0.0643 µM (active); in experiment [4], < 0.01 µM (active); in experiment [5] it was 0.143 µM (active); in [6], < 0.01 µM (active). Besides, the GI50 in experiment [7] was 0.244 µM (active); in [8] it was 0.566 µM (active); in [9], 0.0277 µM (active).

Turning to `N#C/C(=C\c1ccc(O)c(O)c1)c1c(C#N)c(N)nn1-c1ccccc1`, the GI50 was 14.6 µM (inactive) in experiment [1]; 38.1 µM (inactive) in experiment [3]; 6.92 µM (inactive) in experiment [6]; 8.65 µM (inactive) in [7]; 18.5 µM (inactive) in [8]; 1.04 µM (active) in experiment [9].

`Cc1ccc(NC(=O)CCc2nc(N)nc(N)c2-c2ccccc2)cc1C`: the GI50 in [1], in experiment [2], in experiment [3], in experiment [4], in experiment [5] and in experiment [6] was > 100 µM (inactive) throughout. Besides, the GI50 in experiment [7], in [8] and in [9] was > 100 µM (inactive) throughout.

For the molecule `O=C(Nc1c(O)[nH]c(=S)[nH]c1=O)c1ccco1`, the GI50 in experiment [1], in [3], in experiment [4], in experiment [7] and in [9] was > 100 µM (inactive) each time.

As to `CCOC(=N)/C(=C1\OC(=N)C(c2ccc(Cl)cc2)=C1O)c1ccc(Cl)cc1`, the GI50 was 25.6 µM (inactive) in experiment [1]; 25.2 µM (inactive) in experiment [2]; 18.5 µM (inactive) in experiment [3]; 17.3 µM (inactive) in experiment [4]; 11.4 µM (inactive) in experiment [5]; 14.7 µM (inactive) in experiment [6]. Besides, the GI50 in experiment [7] is 14.7 µM (inactive); in experiment [8], 15.2 µM (inactive); in experiment [9], 19 µM (inactive).

As for `Cc1ccc(S(=O)(=O)OCC23CCC(C2)C2CC23)cc1` (stereo unspecified), the GI50 in experiment [3], in experiment [4], in experiment [6], in experiment [7], in experiment [8] and in experiment [9] was > 100 µM (inactive) in each case.

Consider `O=C(N/C(=C\c1ccc(/C=C(\NC(=O)c2ccccc2)c2nc3c(O)nc(S)nc3[nH]2)cc1)c1nc2c(O)nc(S)nc2[nH]1)c1ccccc1`, for which the GI50 in experiment [1] was > 100 µM (inactive); in [2], 62.4 µM (inactive); in [3], > 100 µM (inactive); in experiment [4] it was 34.3 µM (inactive); in [5], > 100 µM (inactive); in experiment [6], > 100 µM (inactive). Moreover, the GI50 in experiment [7] is 35.9 µM (inactive); in experiment [8], 64.9 µM (inactive); in experiment [9], > 100 µM (inactive).

With `C=C(Br)C(C)(Cl)CCC(Br)C(C)(C)Br` (stereo unspecified), the GI50 in experiment [1] was > 100 µM (inactive); in experiment [4] it was 25.4 µM (inactive); in [6], 39.4 µM (inactive); in experiment [7] it was 83 µM (inactive); in [8], 91.8 µM (inactive); in experiment [9], > 100 µM (inactive).

Turning to `CC(=O)O/N=C/c1ncccc1CO`, the GI50 in [2], in experiment [3], in experiment [4], in experiment [5], in [6] and in experiment [7] was > 100 µM (inactive) throughout. For the same molecule, the GI50 in experiment [8] and in experiment [9] was > 100 µM (inactive) throughout.

Consider `CC12O[C@H](c3ccccc3)[C@H](c3ccccc3)N1C(=O)C1(C(=O)OCc3ccccc3)CC12` (stereo partly specified), for which the GI50 in experiment [2] was > 100 µM (inactive); in experiment [3], 25.1 µM (inactive); in [4] it was 39.6 µM (inactive); in experiment [5] it was 78.9 µM (inactive); in [6] it was 80 µM (inactive); in experiment [7], 26.6 µM (inactive). Also, the GI50 in [8] was 88.1 µM (inactive).

On to `COc1ccc2c(-c3cc4ccccc4o3)cc(=O)oc2c1`, for which the GI50 in experiment [1] is 35.2 µM (inactive); in experiment [2] it was 36.9 µM (inactive); in [3], > 100 µM (inactive); in experiment [5] it was 21.3 µM (inactive); in [6], 61.8 µM (inactive); in [7], > 76.2 µM (inactive). For the same molecule, the GI50 in [8] was > 100 µM (inactive); in [9] it was 48.6 µM (inactive).

For `CN(C)C(=O)c1ccc([N+](=O)[O-])cc1`, the GI50 in experiment [1], in [3], in [4], in experiment [6], in experiment [7] and in experiment [8] was > 100 µM (inactive) in each case.

Take `Nc1ncnc2c1ncn2[C@]1(CO)C=C(CO)C(O)C1O` (stereo partly specified): the GI50 in experiment [1], in [2], in experiment [3], in experiment [4], in experiment [5] and in experiment [6] was > 100 µM (inactive) each time. Moreover, the GI50 in experiment [7], in [8] and in [9] was > 100 µM (inactive) each time.

`CC(C)c1c2[nH]c3ccccc3c2c(C(C)C)c2[nH]c3ccccc3c12`: the GI50 in [1] was > 100 µM (inactive); in experiment [2], > 100 µM (inactive); in [3], 17.6 µM (inactive); in experiment [4] it was > 100 µM (inactive); in experiment [5], > 100 µM (inactive); in experiment [6] it was 81.5 µM (inactive). Besides, the GI50 in [7] is > 100 µM (inactive); in experiment [8] it was > 78.7 µM (inactive); in experiment [9], > 100 µM (inactive).

Consider `Nc1nc2c3c(ncn3CC(O)CO2)n1` (stereo unspecified), for which the GI50 in experiment [1], in experiment [2], in [3], in experiment [4], in [6] and in experiment [7] was > 100 µM (inactive) in each case. The GI50 in experiment [8] and in experiment [9] was > 100 µM (inactive) each time.

Consider `COc1cc2nc(NCCCCCNC(=O)c3ccco3)nc(N)c2cc1OC`, for which the GI50 in experiment [1] was 28.2 µM (inactive); in experiment [2], 26.1 µM (inactive); in experiment [3], 32.4 µM (inactive); in experiment [4] it was 19.9 µM (inactive); in experiment [6], 49.9 µM (inactive); in experiment [9] it was > 100 µM (inactive).

As for `O/N=C1/CCC/C1=C\c1ccccc1`, the GI50 in [1] was > 100 µM (inactive); in [3], > 100 µM (inactive); in experiment [5], 29.9 µM (inactive); in experiment [6], > 100 µM (inactive); in [7], > 100 µM (inactive); in experiment [8], > 100 µM (inactive). For the same molecule, in [9], the GI50 is > 100 µM (inactive).

Take `COc1cc(C(C)O)c[n+](CCC2CNc3ccccc32)c1` (stereo unspecified): the GI50 in experiment [3] was 43 µM (inactive); in experiment [4], 91.4 µM (inactive); in experiment [5], > 100 µM (inactive); in experiment [6], > 100 µM (inactive); in experiment [7] it was > 100 µM (inactive); in [8], > 100 µM (inactive).

On to `CC(C)COC1Sc2ccccc2S1`, for which the GI50 in experiment [1] is 27.9 µM (inactive); in experiment [3], 17.5 µM (inactive); in experiment [4], 12.5 µM (inactive); in experiment [5], > 10 µM (inactive); in [6] it was 19.8 µM (inactive); in experiment [7] it was 20.7 µM (inactive). The GI50 in [8] is 16.4 µM (inactive); in experiment [9] it was 16.5 µM (inactive).
